From patent US20200190135A1, “LASSO STRUCTURES AND THEIR SYNTHESIS” (ChromaCon AG, priority 2016, published 2020) come the findings set out here.

Numbered stars: 1 amine (or outer) side, 2 acyl side, 3 side chain; on linkers, the order of the positions; unused ones are H or OH. Square brackets hold non-standard residues; d marks the D form. Peptide text beside a SMILES is read from it. * marks the point of attachment. ξ: configuration not given here. X1 = O=C(NCCOCCN(CC(=O)[*:2])[*:1])c1ccc(F)cc1; X2 = c1cc2c(cc1CCN*)OCCOCCOCCOCCOCCOCCO2; Thr(3ξ) = CC(O)[C@H](N)C(=O)O; GABA = NCCCC(=O)O; Cam = NC(=O)C*

Holding throughout (assay type): in vitro ADME
The subject of one data set is trypsin. Briefly: Proteolytic stability, incubation with trypsin. The note with it: incubation for 24 h with trypsin (FIG. 13). As for the experimental part: (§1) Proteolytic stability of lasso compounds L1, L2, and L3 in comparison to their branched macrocyclic compounds B1, B2, and B3 and the cyclic peptide analogue C1 (see FIG. 11) was tested in separate experiments by incubation for 24 h with chymotrypsin (FIG. 12), trypsin (FIG. 13) and proteinase K (FIG. 14).

The next data set has as its target proteinase K (Parengyodontium album, UniProt P06873). Description: Proteolytic stability, incubation with proteinase K. The note with it: incubation for 24 h with proteinase K (FIG. 14). Here is the method: as §1
Data set [1] can be described thus: Serum stability, incubation with human serum. The settings on record: incubation for 24 h with human serum (FIG. 16). As for the experimental part: Serum stability of compounds L1, L2, and L3 in comparison to their branched macrocyclic compounds B1, B2, and B3, the cyclic peptide C1, and the linear C- and N-terminally unmasked derivative R1 (see FIG. 15) was tested by incubation for 24 h with human serum (FIG. 16).

proteinase K, sequence (P06873 106-384): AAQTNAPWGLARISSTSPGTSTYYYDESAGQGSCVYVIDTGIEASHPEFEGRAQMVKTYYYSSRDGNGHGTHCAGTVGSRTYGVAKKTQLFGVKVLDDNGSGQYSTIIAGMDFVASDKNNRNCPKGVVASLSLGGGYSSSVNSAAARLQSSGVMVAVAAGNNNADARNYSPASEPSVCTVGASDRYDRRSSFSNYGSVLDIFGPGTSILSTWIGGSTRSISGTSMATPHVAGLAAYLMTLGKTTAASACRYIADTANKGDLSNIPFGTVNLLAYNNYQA

`CC(C)C[C@@H]1NC(=O)[C@H](C(C)O)NC(=O)[C@H](CCCCN)NC(=O)[C@@H](Cc2c[nH]c3ccccc23)NC(=O)[C@H](Cc2ccccc2)NC(=O)[C@H](CSCC(N)=O)NC(=O)CNC(=O)[C@H](Cc2ccccc2)NC(=O)CCCNC1=O` (stereo partly shown) [C1] (cyclo(C(Cam)F[dW]K[Thr(3ξ)]L[GABA]FG)): the “stability versus trypsin degradation” value in the data set on trypsin was “similarly stable as L1-L3”. Moreover, at proteinase K, the “stability versus proteinase K degradation” value is listed as “similarly stable as L1-L3”. Regarding `CC(C)C[C@H](NC(=O)[C@@H](NC(=O)[C@H](CCCCN)NC(=O)[C@@H](Cc1c[nH]c2ccccc12)NC(=O)[C@H](Cc1ccccc1)NC(=O)[C@H](CSCC(N)=O)NC(=O)CNC(=O)[C@H](Cc1ccccc1)NC(=O)CNCCOCCNC(=O)c1ccc(F)cc1)[C@@H](C)O)C(=O)NCCCC(=O)NCCc1ccc2c(c1)OCCOCCOCCOCCOCCOCCO2` [L1] (H-[X1]FGC(Cam)F[dW]KTL[GABA]-X2), the fraction remaining at 24 h in data set [1] (read-out: remaining compound at the final time point) is around 70%. Consider `CC(C)C[C@H](NC(=O)[C@@H](NC(=O)[C@H](CCCCN)NC(=O)[C@@H](Cc1c[nH]c2ccccc12)NC(=O)[C@H](Cc1ccccc1)NC(=O)[C@H](CSCC(N)=O)NC(=O)CNC(=O)[C@@H](N)Cc1ccccc1)[C@@H](C)O)C(=O)O` [R1] (H-FGC(Cam)F[dW]KTL-OH), for which, in data set [1], the “degradation in human serum (in words)” value is “degraded rapidly and completely”.

By share remaining is commonly meant what is left of the initial amount, in per cent.
